Reference: article PMC8140105 (Scientific Reports, 2021)

How the values were obtained:
[1] = Brain-to-blood transport (efflux); type: in vivo, ICR-CD-1 mice; details: kout not significantly different from zero
Description: Briefly, 0.1 µmol of the lyophilized peptide was dissolved in 100 µL of phosphate buffer (pH 7.4, 25 mM). A Iodo-Gen coated tube (Thermo Scientific, Merelbeke, Belgium) was first of all rinsed with 1 mL of phosphate buffer. Subsequently, 50 µL of sodium iodide solution (1.1 µmol/mL) and 1 mCi of Na^125I solution (Perking Elmer, Zaventem, Belgium) were transferred into this Iodo-Gen coated tube. The oxidation reaction was allowed to proceed for six minutes at room temperature, after which the iodonium solution was transferred to 50 µL of peptide solution (1 mM). The iodination reaction of the peptide was allowed to proceed for another six minutes at room temperature. […]
We quantified the amount of peptide exported out of the brain as previously described. […] Then, the whole brain was collected, weighed and measured in a gamma counter for 5 min. Fifty µL of serum, which was obtained by centrifuging the collected blood at 10,000g during 15 min at 21 °C, and the background was also measured in a gamma counter. The efflux half-life was calculated from the linear regression of the natural logarithm of the residual radioactivity in brain versus time as follows:3 t1/2=ln(2)/kout where kout is defined as the efflux rate constant calculated as the negative value of the slope of the linear regression, applying first order kinetics.

BV-2 cells = test: Immunoblotting (NF-kB p65, IκBα, NIK); type: cell-based, murine
Description: To assess nuclear translocation of NF-kB, cells were lysed after 20 h using the NE-PER protocol (Thermo Scientific). Using this kit, the cytoplasmic and nuclear protein fractions are separated from each other. To asses IκBα expression, cells were lysed with RIPA buffer. Protein content of the lysates was determined using the modified Lowry assay (Thermo Scientific). Proteins (20 µg) were separated using an Any kD gel (SDS-PAGE) and transferred to a nitrocellulose membrane (BioRad, Temse, Belgium). Aspecific binding sites were blocked for 30 min using TBS + 1% casein (BioRad, Temse, Belgium). Western blot was performed using the following primary polyclonal antibodies overnight (4 °C): anti-p65 NFkB (1/500), anti-IκBα (1/1000) and anti-β-actin (1/1000), β-tubulin (1/4000) and anti-Histon H3.3 (1/5000) were used as loading controls. Goat anti-rabbit-AP antibody was used for detection (1/10,000) (60 min). All antibodies were purchased at Thermo Scientific (Merelbeke, Belgium). Finally, the BCIP/NBT substrate was added and the results were analyzed using the GelDoc EZ imager and Image Lab software (BioRad, Temse, Belgium). TBS buffer was used for washing between the steps.

What does the source list for “SDLPFEH [PapRIV, heptapeptide (SDLPFEH) quorum sensing peptide originating from the Bacillus cereus group; synthetic, purchased from GL Biochem]”?
efflux from brain back to the circulation [1]: no efflux; NF-kB nuclear translocation (BV-2 cells; 20 h, n = 3): increased; NIK expression (BV-2 cells; data not shown): not observed; IκBα levels (BV-2 cells; n = 3): decreasing
